Measured values taken from article PMC10575836, “Elevated acetate kinase (ackA) gene expression, activity, and biofilm formation observed in methicillin-resistant strains of Staphylococcus aureus (MRSA)” (Journal of Genetic Engineering & Biotechnology, 2023).

Target: T1, recombinant ackA (S. aureus ATCC12600 acetate kinase) (Staphylococcus aureus, UniProt Q8NW53)
T1 construct: full-length, His-6 tag from pQE 30 (Sal I/Hind III), clone PSackA, expressed in E. coli DH5alpha, nickel column, 44 kDa on SDS-PAGE
T1 sequence (Q8NW53 1-400): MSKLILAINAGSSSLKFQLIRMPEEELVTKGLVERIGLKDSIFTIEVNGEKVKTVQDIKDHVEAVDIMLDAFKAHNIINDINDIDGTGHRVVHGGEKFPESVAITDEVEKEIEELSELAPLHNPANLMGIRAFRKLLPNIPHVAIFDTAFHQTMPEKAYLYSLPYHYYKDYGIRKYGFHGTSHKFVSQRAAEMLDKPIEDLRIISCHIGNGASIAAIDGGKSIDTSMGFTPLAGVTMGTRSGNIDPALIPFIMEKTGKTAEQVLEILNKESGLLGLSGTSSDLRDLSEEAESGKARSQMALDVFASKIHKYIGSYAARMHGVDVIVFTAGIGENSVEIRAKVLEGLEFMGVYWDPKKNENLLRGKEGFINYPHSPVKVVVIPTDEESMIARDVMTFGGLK
Test: coupled pyruvate kinase / lactate dehydrogenase assay, NADH at […] nm
Type: biochemical
Conditions: 2 mM potassium acetate, 1.5 mM ATP, 2 mM MgCl2, 100 mM Tris-HCl pH 7.3

CC(=O)O [potassium acetate]
coupled pyruvate kinase / lactate dehydrogenase assay, NADH at 340 nm: Assays were initiated by the addition of either the cytosolic fraction or pure recombinant ackA
